Patent US20230117034A1, “PYRAZOLOTRIAZINES” (Bayer Aktiengesellschaft, priority 2019, published 2023)

Columns and labels:
[1] = molecular target: T1, CDK2/CycE (Homo sapiens, UniProt P24941); test: CDK2/CycE kinase assay (TR-FRET, 2 mM ATP); assay type: biochemical; conditions: 2 mM ATP (high ATP); median; read-out: CDK2/CyclinE, 2 mM ATP (high ATP), IC50 (median)
T1 construct: purchased ProQinase GmbH (Freiburg, Germany); host or cells: insect cells (Sf9)
In short: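 Biotin-peptide phosphorylation (0.75 µM substrate, 2 mM ATP final, 25 min, 22 °C) by Sf9-expressed GST-CDK2/GST-CycE, after a 15-min compound pre-binding step. Inhibition scaled between enzyme-free (100%) and uninhibited (0%) wells.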

[2] = molecular target: T2, CDK12 (nuclear staining in CAL-120 cells) (Homo sapiens, UniProt Q9NYV4); test: CDK12 nuclear protein level: immunofluorescence/high content analysis (CAL-120); assay type: cell-based; conditions: for DC50: CAL-120 cells, 24 h, immunofluorescence, 50% reduction of nuclear CDK12 staining intensity, median, read-out: CDK12 degradation IF, DC50- [mol/l] (median); for (IC50 CDK12 high ATP) to (Degradation DC50 CDK12) ratio: ratio of IC50 CDK12 high ATP kinase assay to DC50 CDK12 degradation (IF, CAL-120)
T2 construct: endogenous in cells; host or cells: CAL-120 human breast cancer cells (DSMZ ACC 459)
T2 sequence (Q9NYV4 whole entry): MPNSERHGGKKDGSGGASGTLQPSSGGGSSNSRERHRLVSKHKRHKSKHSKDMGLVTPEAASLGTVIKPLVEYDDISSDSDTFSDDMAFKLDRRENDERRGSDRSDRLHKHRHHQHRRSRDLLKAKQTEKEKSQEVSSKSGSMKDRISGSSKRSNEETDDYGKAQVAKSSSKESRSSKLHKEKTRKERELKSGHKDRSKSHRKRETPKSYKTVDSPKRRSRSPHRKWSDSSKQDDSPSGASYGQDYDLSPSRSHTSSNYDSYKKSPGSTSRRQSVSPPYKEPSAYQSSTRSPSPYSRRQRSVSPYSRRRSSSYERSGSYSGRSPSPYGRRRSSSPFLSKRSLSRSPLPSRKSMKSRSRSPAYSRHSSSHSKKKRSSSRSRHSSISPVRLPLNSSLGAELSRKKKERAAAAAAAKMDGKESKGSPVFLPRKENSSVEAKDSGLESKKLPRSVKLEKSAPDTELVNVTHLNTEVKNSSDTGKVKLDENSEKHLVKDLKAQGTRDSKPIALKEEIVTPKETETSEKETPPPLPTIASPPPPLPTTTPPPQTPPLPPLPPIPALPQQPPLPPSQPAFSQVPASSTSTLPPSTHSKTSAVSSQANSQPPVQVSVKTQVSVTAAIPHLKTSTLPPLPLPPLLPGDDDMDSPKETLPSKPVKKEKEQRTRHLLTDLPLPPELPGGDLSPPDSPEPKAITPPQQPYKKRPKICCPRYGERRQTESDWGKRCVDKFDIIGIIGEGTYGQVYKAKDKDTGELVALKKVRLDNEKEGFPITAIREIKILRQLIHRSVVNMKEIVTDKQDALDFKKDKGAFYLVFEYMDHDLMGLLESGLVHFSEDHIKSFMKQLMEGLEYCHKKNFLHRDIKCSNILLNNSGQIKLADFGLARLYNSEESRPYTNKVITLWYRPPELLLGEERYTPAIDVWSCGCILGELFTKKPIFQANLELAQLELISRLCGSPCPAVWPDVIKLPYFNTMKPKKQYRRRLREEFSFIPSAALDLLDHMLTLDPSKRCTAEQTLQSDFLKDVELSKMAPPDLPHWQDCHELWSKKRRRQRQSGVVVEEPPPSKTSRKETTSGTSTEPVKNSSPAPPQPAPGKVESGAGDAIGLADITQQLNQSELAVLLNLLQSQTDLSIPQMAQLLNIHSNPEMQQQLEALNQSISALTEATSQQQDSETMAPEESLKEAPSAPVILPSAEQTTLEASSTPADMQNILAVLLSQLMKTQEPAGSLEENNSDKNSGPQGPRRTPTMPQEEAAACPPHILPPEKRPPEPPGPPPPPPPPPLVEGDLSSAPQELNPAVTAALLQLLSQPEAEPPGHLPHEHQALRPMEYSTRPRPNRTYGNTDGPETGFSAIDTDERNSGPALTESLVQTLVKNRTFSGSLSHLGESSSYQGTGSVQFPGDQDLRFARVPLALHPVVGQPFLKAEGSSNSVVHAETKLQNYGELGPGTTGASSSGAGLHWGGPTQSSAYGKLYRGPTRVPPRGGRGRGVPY
T2 sequence (O75909 whole entry partner): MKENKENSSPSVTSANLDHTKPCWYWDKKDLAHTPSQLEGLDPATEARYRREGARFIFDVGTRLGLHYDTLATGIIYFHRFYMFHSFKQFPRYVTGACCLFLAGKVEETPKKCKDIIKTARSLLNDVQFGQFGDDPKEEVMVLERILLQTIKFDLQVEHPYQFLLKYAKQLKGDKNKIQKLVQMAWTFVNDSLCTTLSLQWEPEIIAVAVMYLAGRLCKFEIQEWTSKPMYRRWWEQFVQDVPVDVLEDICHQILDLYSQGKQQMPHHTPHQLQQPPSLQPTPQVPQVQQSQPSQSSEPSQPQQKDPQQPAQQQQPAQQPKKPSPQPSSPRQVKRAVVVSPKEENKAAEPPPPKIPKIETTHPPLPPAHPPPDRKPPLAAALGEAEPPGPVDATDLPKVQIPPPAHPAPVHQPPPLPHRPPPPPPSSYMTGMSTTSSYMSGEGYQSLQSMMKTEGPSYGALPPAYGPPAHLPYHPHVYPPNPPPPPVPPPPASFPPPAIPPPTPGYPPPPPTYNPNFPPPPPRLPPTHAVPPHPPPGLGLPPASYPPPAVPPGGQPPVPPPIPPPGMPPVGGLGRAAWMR
In short: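 DC50 is the degrader concentration that halves nuclear CDK12 immunofluorescence relative to controls, measured by high-content imaging. CAL-120 cells were exposed to compound for 24 h at 37 °C before PFA fixation, and signal was normalized to DMSO and control wells.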

[3] = molecular target: T3, CYCLIN K (nuclear staining in CAL-120 cells) (Homo sapiens, UniProt O75909); test: CYCLIN K nuclear protein level: immunofluorescence high content analysis (CAL-120); assay type: cell-based; conditions: 24 h, 50% reduction of nuclear CCNK staining intensity, median, read-out: CYCLIN K degradation IF, DC50-[mol/l] (median)
T3 construct: endogenous in cells; host or cells: CAL-120 human breast cancer cells (DSMZ ACC 459)
T3 sequence (O75909 whole entry): as the sequence (O75909 whole entry partner) above
T3 sequence (Q9NYV4 whole entry partner): as the sequence (Q9NYV4 whole entry) above
In short: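 Readout is automated confocal image analysis of nuclear cyclin K immunofluorescence (Hoechst nuclei) after PFA fixation. Cells were CAL-120, exposed to compound dose-response 24 h at 37 °C; values are DC50 for halving nuclear CCNK signal relative to DMSO and control wells.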

SMILES | IC50 [1] | DC50 [2] | (IC50 CDK12 high ATP) to (Degradation DC50 CDK12) ratio [2] | DC50 [3]
Cc1ccc2[nH]c(CNc3nc(N4CCNCC4)nc4c(Br)cnn34)nc2c1 [Example 204, 8-bromo-N-[(5-methyl-1H-benzimidazol-2-yl)methyl]-2-(piperazin-1-yl)pyrazolo[1,5-a][1,3,5]triazin-4-amine] | 10900 nM | 0.619 nM | 7019 | 0.0967 nM
CN1CCN(c2nc(NCc3nc4ccccc4[nH]3)n3ncc(Br)c3n2)CC1 [Example 18, N-[(1H-benzimidazol-2-yl)methyl]-8-bromo-2-(4-methylpiperazin-1-yl)pyrazolo[1,5-a][1,3,5]triazin-4-amine] | 6290 nM | 2.98 nM | >5268 | 1.39 nM
CN1CCCC2CN(c3nc(NCc4nc5ccccc5[nH]4)n4ncc(Br)c4n3)CC21 (stereo not drawn) [Example 231, N-[(1H-benzimidazol-2-yl)methyl]-8-bromo-2-(1-methyloctahydro-6H-pyrrolo[3,4-b]pyridin-6-yl)pyrazolo[1,5-a][1,3,5]triazin-4-amine] | 12400 nM | 33.9 nM | >590 | 34.1 nM
Fc1ccc2[nH]c(CNc3nc(N4CCNCC4)nc4c(C5CC5)cnn34)nc2c1 [Example 190, 8-cyclopropyl-N-[(5-fluoro-1H-benzimidazol-2-yl)methyl]-2-(piperazin-1-yl)pyrazolo[1,5-a][1,3,5]triazin-4-amine] | > 20000 nM | 0.553 nM | 11161 | 0.268 nM
OC1CCN(c2nc(NCc3nc4ccccc4[nH]3)n3ncc(Br)c3n2)CC1 [Example 17, 1-(4-{[(1H-benzimidazol-2-yl)methyl]amino}-8-bromopyrazolo[1,5-a][1,3,5]triazin-2-yl)piperidin-4-ol] | 2890 nM | 5.98 nM | 957 | 4.63 nM
Fc1ccc2[nH]c(CNc3nc(N4CCOCC4)nc4c(C5CC5)cnn34)nc2c1 [Example 181, 8-cyclopropyl-N-[(5-fluoro-1H-benzimidazol-2-yl)methyl]-2-(morpholin-4-yl)pyrazolo[1,5-a][1,3,5]triazin-4-amine] | > 20000 nM | 0.878 nM | 2179 | 0.503 nM
COc1ccc2[nH]c(CNc3nc(N4C[C@@H](C)N[C@@H](C)C4)nc4c(Br)cnn34)nc2c1 [Example 205, 8-bromo-2-[(3R,5S)-3,5-dimethylpiperazin-1-yl]-N-[(5-methoxy-1 H-benzimidazol-2-yl)methyl]pyrazolo[1,5-a][1,3,5]triazin-4-amine] | > 20000 nM | 0.506 nM | 15749 | 0.279 nM
CN1CC2CCC1CN2c1nc(NCc2nc3ccccc3[nH]2)n2ncc(Br)c2n1 (stereo not drawn) [Example 221, N-(1H-benzimidazol-2-ylmethyl)-8-bromo-2-(5-methyl-2,5-diazabicyclo[2.2.2]octan-2-yl)pyrazolo[1,5-a][1,3,5]triazin-4-amine] | 5010 nM | 4.68 nM | 1704 | 0.41 nM
Cc1ccc2[nH]c(CNc3nc(N4C[C@@H]5CCCN[C@@H]5C4)nc4c(C5CC5)cnn34)nc2c1 [Example 195, 8-cyclopropyl-N-[(5-methyl-1H-benzimidazol-2-yl)methyl]-2-[(4aS,7aS)-octahydro-6H-pyrrolo[3,4-b]pyridin-6-yl]pyrazolo[1,5-a][1,3,5]triazin-4-amine] | > 20000 nM | 2.18 nM | 3781 | 1.29 nM
Fc1ccc2[nH]c(CNc3nc(N4CCOCC4)nc4c(C5CC5)cnn34)nc2c1F [Example 172, 8-cyclopropyl-N-[(4,5-difluoro-1H-benzimidazol-2-yl)methyl]-2-(morpholin-4-yl)pyrazolo[1,5-a][1,3,5]triazin-4-amine] | > 20000 nM | 1.1 nM | 581 | 0.894 nM
FC(F)(F)c1cnn2c(NCc3nc4ccccc4[nH]3)nc(N3CCOCC3)nc12 [Example 241, N-[(1H-benzimidazol-2-yl)methyl]-2-(morpholin-4-yl)-8-(trifluoromethyl) pyrazolo[1,5-a][1,3,5]triazin-4-amine] | 12000 nM | 4.34 nM | 186 | 1.26 nM
CN(CCO)c1nc(NCc2nc3ccccc3[nH]2)n2ncc(Br)c2n1 [Example 237, 2-[(4-{[(1H-benzimidazol-2-yl)methyl]amino}-8-bromopyrazolo[1,5-a][1,3,5]triazin-2-yl)(methyl)amino]ethan-1-ol] | 4940 nM | 128 nM | 58 | 19.7 nM
CN1C[C@H]2C[C@@H]1CN2c1nc(NCc2nc3ccccc3[nH]2)n2ncc(Br)c2n1 [Example 218, N-[(1H-benzimidazol-2-yl)methyl]-8-bromo-2-[(1R,4R)-5-methyl-2,5-diazabicyclo[2.2.1]heptan-2-yl]pyrazolo[1,5-a][1,3,5]triazin-4-amine] | 5780 nM | 10.5 nM | >1900 | 0.685 nM
OC[C@@H]1CCCCN1c1nc(NCc2nc3cc(F)ccc3[nH]2)n2ncc(C3CC3)c2n1 [Example 191, [(2S)-1-(8-cyclopropyl-4-{[(5-fluoro-1H-benzimidazol-2-yl)methyl]amino}pyrazolo[1,5-a][1,3,5]triazin-2-yl)piperidin-2-yl]methanol] | 1770 nM | 0.606 nM | 548 | 0.187 nM
CO[C@H]1CCN(c2nc(NCc3nc4ccccc4[nH]3)n3ncc(Br)c3n2)C1 [Example 222, N-[(1H-benzimidazol-2-yl)methyl]-8-bromo-2-[(3S)-3-methoxypyrrolidin-1-yl]pyrazolo[1,5-a][1,3,5]triazin-4-amine] | 14600 nM | 48.8 nM | 123 | 3.05 nM
COc1cccc2[nH]c(CNc3nc(N4C[C@@H]5CCCN[C@@H]5C4)nc4c(C5CC5)cnn34)nc12 [Example 214, 8-cyclopropyl-N-[(4-methoxy-1H-benzimidazol-2-yl)methyl]-2-[(4aS,7aS)-octahydro-6H-pyrrolo[3,4-b]pyridin-6-yl]pyrazolo[1,5-a][1,3,5]triazin-4-amine] | 17700 nM | 3.92 nM | 2062 | 0.347 nM
Brc1cnn2c(NCc3nc4ccccc4[nH]3)nc(N3CCNC4(CC4)C3)nc12 [Example 176, N-[(1H-benzimidazol-2-yl)methyl]-8-bromo-2-(4,7-diazaspiro[2.5]octan-7-yl)pyrazolo[1,5-a][1,3,5]triazin-4-amine] | 8600 nM | 1.53 nM | 1525 | 0.208 nM
Fc1ccc2[nH]c(CNc3nc(N4C[C@@H]5CCCN[C@@H]5C4)nc4c(C5CC5)cnn34)nc2c1 [Example 180, 8-cyclopropyl-N-[(5-fluoro-1H-benzimidazol-2-yl)methyl]-2-[(4aS, 7aS)-octahydro-6H-pyrrolo[3,4-b]pyridin-6-yl]pyrazolo[1,5-a][1,3,5]triazin-4-amine] | > 20000 nM | 1.59 nM | 10852 | 0.859 nM
